We go through 6 compounds from PubChem BioAssay (NCI).

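Interpolation was linear, between the two tested concentrations surrounding the appropriate level; five concentrations were tested over 48 hours in 96-well plates. The concentration for full growth arrest is given as TGI.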 Bounds are passed on as bounds.

Among the test systems are DLD-1 colon; DMS 114 small cell lung; DMS 273 small cell lung; HOP-18 NSCLC; KM20L2 colon; LXFL 529 NSCLC; M19-MEL melanoma; RXF-631 renal; SNB-75 CNS; SNB-78 CNS; XF 498 CNS.
Holding throughout (test): NCI tumour cell line growth inhibition, 48 h

As for `CC1=NN2C(c3ccc([N+](=O)[O-])cc3)=CSC2=NC(C)(C)C1`, the TGI in the assay with DLD-1 colon, with DMS 114 small cell lung, with DMS 273 small cell lung, with HOP-18 NSCLC, in the assay on KM20L2 colon and in the assay with LXFL 529 NSCLC was greater than 100 µM in each case. The TGI in the assay on M19-MEL melanoma, with RXF-631 renal, in the assay with SNB-75 CNS, in the assay on SNB-78 CNS and with XF 498 CNS was greater than 100 µM each time.

For the compound `CC(C)OC/N=C(/N)NC#N`, the TGI in the assay on DLD-1 colon, in the assay with DMS 114 small cell lung, in the assay with DMS 273 small cell lung, in the assay with HOP-18 NSCLC, with KM20L2 colon and with LXFL 529 NSCLC was greater than 100 µM each time. For the same compound, the TGI in the assay on M19-MEL melanoma, in the assay on RXF-631 renal, with SNB-75 CNS, in the assay with SNB-78 CNS and in the assay with XF 498 CNS was greater than 100 µM in each case.

Regarding `CC1(C)C(=O)C(C)(C)C1=NNC(N)=S`, the TGI in the assay with DMS 114 small cell lung, with DMS 273 small cell lung, in the assay on KM20L2 colon, in the assay with LXFL 529 NSCLC, in the assay with M19-MEL melanoma and in the assay with RXF-631 renal was greater than 100 µM throughout. Besides, the TGI in the assay with SNB-75 CNS, in the assay with SNB-78 CNS and with XF 498 CNS was greater than 100 µM in each case.

For the compound `C(=C\C(Sc1ccccc1)c1ccccc1)/NNC1=NC(c2ccccc2)C(c2ccccc2)=NN1` (stereo not given), the TGI in the assay with DLD-1 colon was 56 µM; in the assay with DMS 114 small cell lung, greater than 100 µM; with DMS 273 small cell lung, greater than 100 µM; in the assay with HOP-18 NSCLC, greater than 100 µM; in the assay on KM20L2 colon, greater than 100 µM; in the assay with M19-MEL melanoma, greater than 100 µM. Also, the TGI in the assay with RXF-631 renal, with SNB-75 CNS, in the assay with SNB-78 CNS and in the assay with XF 498 CNS was greater than 100 µM each time.

On to `C=CCCCN1CCCC(C)C1=S` (stereo not given), for which the TGI with DLD-1 colon, in the assay with DMS 114 small cell lung, in the assay with DMS 273 small cell lung, in the assay on HOP-18 NSCLC, in the assay with KM20L2 colon and in the assay on M19-MEL melanoma was greater than 100 µM in each case. In addition, the TGI in the assay with RXF-631 renal, in the assay on SNB-75 CNS and in the assay on XF 498 CNS was greater than 100 µM throughout.

On to `CC1(C)Cc2c(oc3ncnc(N)c23)CS1`, for which the TGI in the assay with DLD-1 colon, in the assay with DMS 114 small cell lung, in the assay on DMS 273 small cell lung, in the assay on KM20L2 colon, with LXFL 529 NSCLC and in the assay with M19-MEL melanoma was greater than 100 µM throughout. Also, the TGI with RXF-631 renal, in the assay on SNB-75 CNS, in the assay on SNB-78 CNS and with XF 498 CNS was greater than 100 µM each time.
